Molecules are shown by their SMILES. pKi: −log10 of the molar value. Values joined by “and” are separate entries in the source; they are usually repeats but may differ in a detail not shown here. Equal values may be shown once.

FKBP12, sequence (P62942 whole entry, species assumed): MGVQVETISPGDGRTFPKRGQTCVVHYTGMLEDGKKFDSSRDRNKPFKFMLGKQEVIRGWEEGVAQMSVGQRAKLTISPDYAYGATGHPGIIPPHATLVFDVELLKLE

The target in this test is FKBP12 (Homo sapiens, UniProt P62942). The experiment in a line: Affinity for FKBP-12 (Ki), succinyl-Ala-Leu-Pro-Phe-pNA chymotrypsin-coupled assay. The class given is biochemical. The note with it: Table 2; read-out: FKBP12 Kiapps. On the procedure:
In a quartz cuvette, a final 1 mL buffer concentration was reached (50 mM Hepes, 100 mM NaCl, pH 8.0). Within this final reaction volume, 3.5 μL […] FKBP-12 (in 50 mM Hepes, 100 mM NaCl, pH 8.0) and 10 μL test compound in DMSO were added. The reaction was initiated by adding 10 μL chymotrypsin (100 mg/mL in 1 mM HCl) followed by 5 μL (1-20 mM succinyl-Ala-Leu-Pro-Phe-pNA in 240 mM LiCl/TFE).
The absorbance at 390 nm versus time was monitored for up to 400 seconds. Rate constants were determined from the absorbance versus time plots generated.
For `O=C(OCCCCc1ccccc1)[C@@H]1CCCCN1S(=O)(=O)Oc1ccccc1` [Compound 13, 1-Phenoxy sulfonyl-piperidine-2S-carboxylic acid 4-phenyl-butyl ester], the pKi was 5.19.
As for `O=C(OCc1ccccc1)[C@@H]1CCCN1S(=O)(=O)Oc1ccccc1` [Compound 15, 1-Phenoxy sulfonyl-pyrrolidine-2S-carboxylic acid benzyl ester], the pKi was 4.56.
With `CCC(C)(C)NS(=O)(=O)N1CCC[C@H]1C(=O)OCc1ccccc1` [Compound 27, 1-(1,1-Dimethyl-propylsulfamoyl)-pyrrolidine-2S-carboxylic acid Benzyl ester], the pKi was 5.55.
For `O=C(OCc1ccccc1)[C@@H]1CCCN1S(=O)(=O)Nc1ccccc1` [Compound 28, 1-Phenylsulfamoyl-pyrrolidine-2S-carboxylic acid Benzyl ester] the value was 4.71; for `COc1cc(NS(=O)(=O)N2CCC[C@H]2C(=O)OCc2ccccc2)cc(OC)c1OC` [Compound 29, 1-(3,4,5-Trimethoxy-phenylsulfamoyl)-pyrrolidine-2S-carboxylic acid Benzyl ester], 4.46.
Turning to `COc1cc(NS(=O)(=O)N2CCCC[C@H]2C(=O)OCc2ccccc2)cc(OC)c1OC` [Compound 36, 1-(3,4,5-Trimethoxy-phenylsulfamoyl)-piperidine-2S-carboxylic acid Benzyl ester], the pKi was 6.40.
For the molecule `NS(=O)(=O)N1CCCC[C@H]1C(=O)OCc1ccccc1` [Compound 37, 1-sulfamoyl-piperidine-2S-carboxylic acid Benzyl ester], the pKi was 3.91.
For `CCC(C)(C)NS(=O)(=O)N1CCCC[C@H]1C(=O)OCc1ccccc1` [Compound 38, 1-(1,1-Dimethyl-propylsulfamoyl)-piperidine-2S-carboxylic acid Benzyl ester] the value was 6.17; for `COc1cc(NS(=O)(=O)N2CCCC[C@H]2C(=O)O)cc(OC)c1OC` [Compound 39, 1-(3,4,5-Trimethoxy-phenylsulfamoyl)-piperidine-2S-carboxylic acid], under 4.00; for `COc1cc(N2C(=O)[C@@H]3CCCCN3S2(=O)=O)cc(OC)c1OC` [Compound 40, 1,1-Dioxo-2-(3,4,5-trimethoxy-phenyl)-hexahydro-1-[1,2,5] Thiadiazolo [2,3-] pyridin-3-one], 3.64.
For `NS(=O)(=O)N1CCCC[C@H]1C(=O)OCCCCc1ccccc1` [Compound 41, 1-Sulfamoyl-piperidine-2S-carboxylic acid 4-phenyl-butyl ester] the value was 4.42; for `O=C(OCCCCc1ccccc1)[C@@H]1CCCCN1S(=O)(=O)Nc1ccc(N2CCOCC2)cc1` [Compound 42, (S)-1-(4-morpholin-4-yl-phenylsulfamoyl)-piperidine-2-carboxylic 4-phenyl-butyl ester], 6.58; for `COc1ccc(N(C)S(=O)(=O)N2CCCC[C@H]2C(=O)OCCCCc2ccccc2)cc1` [Compound 43, 1-[(4-methoxy-phenyl)-methyl-sulfamoyl]-piperidine-2S-carboxylic acid 4-phenyl-butyl ester], 4.72.
`CN(c1ccccc1)S(=O)(=O)N1CCCC[C@H]1C(=O)OCCCCc1ccccc1` [Compound 44, 1-(Methyl-phenyl-sulfamoyl)-piperidine-2S-carboxylic acid 4-phenyl-butyl ester]: the pKi was 4.92.
Consider `O=C(OCCCCc1ccccc1)[C@@H]1CCCCN1S(=O)(=O)Nc1ccc2[nH]c(=O)[nH]c2c1` [Compound 45, 1-(2-Oxo-2,3-dihydro-1H-benzoimidazol-5-ylsulfamoyl)-piperidine-2-carboxylic acid 4-phenyl-butyl ester], for which the pKi was 7.08.
For `COc1ccc2nc(NS(=O)(=O)N3CCCC[C@H]3C(=O)OCCCCc3ccccc3)sc2c1` [Compound 46, 1-(6-Methoxy-benzothiazol-2-ylsulfamoyl)-piperidine-2S-carboxylic acid 4-phenyl-butyl ester] the value was 4.43; for `O=C(OCCCCc1ccccc1)[C@@H]1CCCCN1S(=O)(=O)Nn1cccc1` [Compound 47, 1-(Pyrrol-1-ylsulfamoyl)-piperidine-2S-carboxylic acid 4-phenylbutyl ester], 5.80; for `COc1cc(NS(=O)(=O)N2CCCC[C@H]2C(=O)OCCCCc2ccccc2)cc(OC)c1` [Compound 48, 1-(3,5-Dimethoxy-phenylsulfamoyl)-piperidine-2S-carboxylic acid 4-phenyl-butyl ester], 6.46.
As to `COc1ccc(NS(=O)(=O)N2CCCC[C@H]2C(=O)OCCCCc2ccccc2)cn1` [Compound 49, 1-(6-methoxy-pyridin-3-ylsulfamoyl)-piperidine-2S-carboxylic acid 4-phenyl-butyl ester], the pKi is 7.10.
`NC(=O)C1CCCN(S(=O)(=O)N2CCCC[C@H]2C(=O)OCCCCc2ccccc2)C1` (stereo partly drawn) [Compound 51, 1-(3-Carbamoyl-piperidine-1-sulfonyl)-piperidine-2S-carboxylic acid 4-phenyl-butyl ester]: the pKi was 6.03.
With `O=C(OCCCCc1ccccc1)[C@@H]1CCCCN1S(=O)(=O)Nc1ccc(Cl)nc1` [Compound 52, (S)-1-(6-Chloro-pyridin-3-ylsulfamoyl)-piperidine-2-carboxylic acid 4-phenyl-butyl ester], the pKi was 6.82.
On to `COC(OC)c1ccn(S(=O)(=O)N2CCCC[C@H]2C(=O)OCCCCc2ccccc2)n1` [Compound 53, 1-(3-Dimethoxymethyl-pyrazole-1-sulfonyl)-peperidine-2-carboxyic acid 4-phenyl-butyl ester], for which the pKi was 5.54.
Turning to `COc1ccc(N(C)S(=O)(=O)N2CCCC[C@H]2C(=O)OCCCCc2ccccc2)cc1[N+](=O)[O-]` [Compound 54, (S)-1-[(4-Methoxy-3-nitro-phenyl)-methyl-sulfamoyl]-piperidine-2-carboxylic acid 4-phenyl-butyl ester], the pKi is 4.59.
Regarding `COc1ccc(N(C)S(=O)(=O)N2CCCC[C@H]2C(=O)OCCCCc2ccccc2)cc1N` [Compound 55, (S)-1-[(3-Amino-4-methoxy-phenyl)-methyl-sulfamoyl]-piperidine-2-carboxylic acid 4-phenyl-butyl ester], the pKi was 4.88.
Take `O=C(OCCCCc1ccccc1)[C@@H]1CCCCN1S(=O)(=O)Nc1ccc2nc[nH]c2c1` [Compound 56, (S)-1-(3H-Benzoimidazol-5-ylsulfamoyl)-piperidine-2-carboxylic acid 4-phenyl-butyl ester]: the pKi is 6.32.
With `COc1cc(NS(=O)(=O)N2CCCC[C@H]2C(=O)NCCCCc2ccccc2)cc(OC)c1OC` [Compound 59, (S)-1-(3,4,5-Trimethoxy-phenylsulfamoyl)-piperidine-2-carboxylic acid (4-phenyl-butyl)-amide], the pKi was 6.83.
Consider `NS(=O)(=O)N1CCSCC1C(=O)OCCCCc1ccccc1` (stereo not shown) [Compound 67, 4-sulfamoyl-thiomorpholine-3-carboxylic acid 4-phenyl-butyl ester], for which the pKi was 3.48 and 3.57.
As to `COc1cc(NS(=O)(=O)N2CCSCC2C(=O)OCCCCc2ccccc2)cc(OC)c1OC` (stereo not shown) [Compound 68, 4-(3,4,5-trimethoxy-phenylsulfamoyl)-thiomorpholine-3-carboxylic acid 4-phenyl-butyl ester], the pKi is 5.36 and 5.19.

Source of the values: US6544987B2, “Compounds, compositions, and methods for stimulating neuronal growth and elongation” (Pfizer Inc., priority 1999, dated 2003).
